Measurements reported in patent US9624247B2, “Pyrazolo-pyrrolidin-4-one derivatives as bet inhibitors and their use in the treatment of disease” (NOVARTIS AG, priority 2013, dated 2017).
Read-outs that look alike come from different tables or passages of the source.

What was measured:
[1] = system: K-562 cells; experiment: Cell growth inhibition assay (CellTiter-Glo), K-562; type: cell-based, human; conditions: K-562, 4 days; for GI50: Homo sapiens, K562, 96 h, half-maximal growth inhibition; for K-562 TGI: total growth inhibition
Experimental: (§1) Cell Growth Inhibition Assay
(§2) The human leukemia cell lines MV-4-11, THP-1 and K-562 were employed to characterize the effect of BET inhibitors on cellular proliferation and viability. Cells were obtained from the American Type Culture Collection (ATCC) and cultured at 37° C. in a humidified 5% CO2 incubator in the following media: MV-4-11: DMEM high glucose (Animed #1-26F01-I), 10% FCS (Animed #2-01F26-I), 4 mM L-Glutamine (Animed #5-10K50), 1 mM Sodium Pyruvate (Animed #G03625P), lx Penicillin-Streptomycin (Animed #F12478P); K-562: Iscove's MEM (Animed #1-28F16-I), 10% FCS (Animed #2-01F26-I), 4 mM L-Glutamine (Animed #5-10K50), 1× Penicillin-Streptomycin (Animed #F12478P); THP-1: RPMI-1640 (Animed #1-41F01-I), 10% FCS (Animed #2-01F26-I), 2 mM L-Glutamine (Animed #5-10K50), 10 mM HEPES (Animed #5-31F100), 1 mM Sodium Pyruvate (Animed #G03625P), 1× Penicillin-Streptomycin (Animed #F12478P). The AML lines MV-4-11 and THP-1 are very sensitive to BET inhibitors and show massive cell death upon BET inhibition (Zuber et al., Nature, 478 (2011), 524-8). Compound-mediated suppression of cell proliferation/viability was assessed by quantification of cellular ATP levels using the CellTiter-Glo (CTG) reagent (Promega). Briefly, cells were seeded in 20 μl fresh medium into 384-well plates, followed by addition of 5 μl medium containing compound dilutions at 5-fold their final intended concentration. Dose-response effects were assessed by 3-fold serial dilutions of the test compound, starting at 10 μM. Following incubation of the cells for 4 days at 37° C. and 5% CO2, the effect of inhibitors on cell viability was quantified following addition of 20 μl CTG and luminescence quantification (integration time: 100 ms) as per vendor manual, using a correspondingly equipped Tecan M200 multi-mode platereader (TECAN, Switzerland). For data analysis, the assay background value determined in wells containing medium, but no cells, was subtracted from all data points. To enable differentiation of cytotoxic from cytostatic compounds, the number of viable cells is assessed relative to that observed at the time of compound addition using a separate cell plate (day 0). The effect of a particular test compound concentration on cell proliferation/viability is expressed as percentage of the background- and day 0-corrected luminescence reading obtained for cells treated with vehicle only (DMSO, 0.1% final concentration), which is set as 100%, whereas that luminescence reading for wells containing medium is set as −100%. Compound concentrations leading to half-maximal (IC50) and total growth inhibition (TGI) were determined using standard four parameter curve fitting.

[2] = system: MV-4-11 cells; experiment: Cell growth inhibition assay (CellTiter-Glo), MV-4-11; type: cell-based, human; conditions: MV-4-11, 4 days; for GI50: Homo sapiens, MV4-11, 96 h, half-maximal growth inhibition; for MV-4-11 TGI: total growth inhibition
Experimental: as §1, §2

[3] = system: THP-1 cells; experiment: Cell growth inhibition assay (CellTiter-Glo), THP-1; type: cell-based, human; conditions: THP-1, 4 days; for GI50: Homo sapiens, 96 h, half-maximal growth inhibition; for THP-1 TGI: total growth inhibition
Experimental: as §1, §2

[4] = molecular target: CREBBP bromodomain (His-CREBBP(1081-1197)) (Homo sapiens (Human), UniProt Q92793); experiment: AlphaScreen in-vitro binding assay for CREBBP
Experimental: AlphaScreen In-Vitro Binding Assay for CREBBP
In order to assess bromodomain selectivity, we set up a binding assay using the bromodomain encoded by the CREBBP gene. […] Reactions were incubated at 30° C. for 35 minutes. Subsequently 4.5 μl per well detection mix (50 mM HEPES, pH 7.5, 0.005% Tween20, 0.02% BSA, 150 mM NaCl, 45 μg/ml Ni-chelate acceptor beads, 45 μg/ml streptavidin-donor beads) (Perkin Elmer)) were added. After 60 minutes incubation at room temperature, plates were measured in a Perkin Elmer EnVision multilabel reader. IC50 values were determined from percent inhibition values at different compound concentrations by non-linear regression analysis.
(§3) Preparation of Compound Dilutions
(§4) Test compounds were dissolved in DMSO (10 mM) and transferred into 1.4 mL flat bottom or V-shaped Matrix tubes carrying a unique 2D matrix. The stock solutions were stored at […] if not used immediately. For the test procedure the vials were defrosted and identified by a scanner whereby a working sheet was generated that guided the subsequent working steps. Compound dilutions were made in 96 well plates. This format enabled the assay of maximally 40 individual test compounds at 8 concentrations (single points) including 4 reference compounds, if desired (known BET inhibitors from the prior art, for this and other assays of the type disclosed herein). The dilution protocol included the production of “pre-dilution plates”, “master plates” and “assay plates”.
(§5) Pre-dilution plates: 96 polypropylene well plates were used as pre-dilution plates. A total of 4 pre-dilution plates were prepared including 10 test compounds each on the plate positions A1-A10, one standard compound at A11 and one DMSO control at A12. All dilution steps were done on a HamiltonSTAR robot.
(§6) These plates were used directly for the assay which was performed in a total volume of 13.55 μL.

[5] = molecular target: BRD3 (His-Brd3(20-477)) (Homo sapiens (Human), UniProt Q15059); experiment: TR-FRET in-vitro binding assay for BRD3; conditions: acetyl-histone H4 peptide
Experimental: (§7) TR-FRET In-Vitro Binding Assays for BRD2, BRD3, and BRD4:
All assays were performed in 384 well microtiter plates. Each assay plate contained 8-point serial dilutions for 40 test compounds, plus 16 high- and 16 low controls. Liquid handling and incubation steps were done on an Innovadyne Nanodrop Express equipped with a robotic arm (Thermo CatX, Perkin Elmer/Caliper Twister II) and an incubator (Liconic STX40, Thermo Cytomat 2C450). The assay plates were prepared by addition of 50 nl per well of compound solution in 90% DMSO HummingBird nanodispenser (Zinsser Analytic). […] Reactions were incubated at 30° C. for 35 minutes. […] After 35 minutes incubation at 30° C., plates were measured in a Perkin Elmer EnVision multilabel reader.
as §3, §4, §5, §6

[6] = molecular target: BRD4 (His-Brd4(44-477)) (Homo sapiens (Human), UniProt O60885); experiment: TR-FRET in-vitro binding assay for BRD4; conditions: acetyl-histone H4 peptide
Experimental: as §7
(§8) All assays were performed in 384 well microtiter plates. Each assay plate contained 8-point serial dilutions for 40 test compounds, plus 16 high- and 16 low controls. Liquid handling and incubation steps were done on an Innovadyne Nanodrop Express equipped with a robotic arm (Thermo CatX, Perkin Elmer/Caliper Twister II) and an incubator (Liconic STX40, Thermo Cytomat 2C450). The assay plates were prepared by addition of 50 nl per well of compound solution in 90% DMSO HummingBird nanodispenser (Zinsser Analytic). The assay was started by stepwise addition of 4.5 μl per well of bromo domain protein (50 mM HEPES, pH 7.5, 0.005% Tween20, 0.1% BSA, 50 mM NaCl, 45 nM His-Brd2(60-472) or 45 nM His-Brd3(20-477) or 45 nM His-Brd4(44-477) all proteins produced in-house) and 4.5 μl per well of peptide solution (50 mM HEPES, pH 7.5, 0.005% Tween20, 0.1% BSA, 50 mM NaCl, 60 nM acetyl-histone H4 (AcK 5, 8, 12, 16) (Biosyntan GmbH)). Reactions were incubated at 30° C. for 35 minutes. […] After 35 minutes incubation at 30° C., plates were measured in a Perkin Elmer EnVision multilabel reader. Concentrations causing 50% inhibition (IC50 values) were determined from percent inhibition values at different compound concentrations by non-linear regression analysis.
as §3, §4, §5
(§9) Master plates: 30 μL of individual compound dilutions including standard compound and controls of the 4 “pre-dilution plates” were transferred into a 384 “master plate” including the following concentrations 10000, 3003, 1000, 300, 100, 30, 10 and 3 μM, respectively in 90% of DMSO.
(§10) Assay plates: Identical “assay plates” were then prepared by pipetting 50 nL each of compound dilutions of the “master plates” into 384-well “assay plates” by means of a HummingBird 384-channel dispenser. These plates were used directly for the assay which was performed in a total volume of 13.55 μL. This led to a final compound concentration of 37, 11, 3.7, 1.1, 0.37, 0.11, 0.037 and 0.011 μM and a final DMSO concentration of 0.37% in the assay.

[7] = molecular target: BRD2 (His-Brd2(60-472)) (Homo sapiens (Human), UniProt P25440); experiment: TR-FRET in-vitro binding assay for BRD2; conditions: acetyl-histone H4 peptide
Experimental: as §7, §8, §3, §4, §5, §9, §10

[8] = AlphaScreen, acetyl-histone H4 peptide, read-out: CREBBP IC50

Chain of BRD3 (His-Brd3(20-477)) (Q15059 20-477): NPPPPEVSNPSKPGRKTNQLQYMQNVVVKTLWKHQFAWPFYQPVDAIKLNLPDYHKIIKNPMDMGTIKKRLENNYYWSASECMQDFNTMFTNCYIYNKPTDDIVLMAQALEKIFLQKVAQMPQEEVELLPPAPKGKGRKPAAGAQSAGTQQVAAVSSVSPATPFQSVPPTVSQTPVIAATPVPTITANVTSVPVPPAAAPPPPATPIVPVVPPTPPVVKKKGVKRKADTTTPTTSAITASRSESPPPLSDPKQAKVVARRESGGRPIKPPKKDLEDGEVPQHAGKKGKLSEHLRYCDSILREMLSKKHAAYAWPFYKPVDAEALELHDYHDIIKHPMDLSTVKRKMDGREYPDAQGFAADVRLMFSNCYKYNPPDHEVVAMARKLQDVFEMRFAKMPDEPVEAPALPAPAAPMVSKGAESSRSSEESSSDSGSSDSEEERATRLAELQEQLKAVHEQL
Chain of BRD2 (His-Brd2(60-472)) (P25440 60-472): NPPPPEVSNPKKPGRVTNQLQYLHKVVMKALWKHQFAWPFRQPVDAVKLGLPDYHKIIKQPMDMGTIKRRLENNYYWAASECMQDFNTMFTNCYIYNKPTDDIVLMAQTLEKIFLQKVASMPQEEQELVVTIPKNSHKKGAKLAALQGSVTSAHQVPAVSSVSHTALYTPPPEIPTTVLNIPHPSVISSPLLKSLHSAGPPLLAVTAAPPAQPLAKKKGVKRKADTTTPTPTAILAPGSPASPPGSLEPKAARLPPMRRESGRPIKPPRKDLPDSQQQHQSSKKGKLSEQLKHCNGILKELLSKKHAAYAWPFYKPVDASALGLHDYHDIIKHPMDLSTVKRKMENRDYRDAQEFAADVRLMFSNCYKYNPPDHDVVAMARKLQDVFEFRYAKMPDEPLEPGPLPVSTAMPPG
Chain of CREBBP bromodomain (His-CREBBP(1081-1197)) (Q92793 1081-1197): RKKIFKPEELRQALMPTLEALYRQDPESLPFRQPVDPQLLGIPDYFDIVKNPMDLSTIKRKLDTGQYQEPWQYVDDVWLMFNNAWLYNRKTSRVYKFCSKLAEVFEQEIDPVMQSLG

Row | Compound | GI50 [1] | K-562 TGI [1] | GI50 [2] | MV-4-11 TGI [2] | GI50 [3] | THP-1 TGI [3] | IC50 [4, 8] | IC50 [5] | IC50 [6] | IC50 [7] | IC50 [4]
1 | Cc1cc(N2C(=O)c3c(C4CC4)nn(C)c3C2c2ccc(Cl)cc2)cc2c1nnn2C (racemic) [Example 8, 6-(4-chlorophenyl)-3-cyclopropyl-5-(1,4-dimethyl-1H-benzo[d][1,2,3]triazol-6-yl)-1-methyl-5,6-dihydropyrrolo[3,4-c]pyrazol-4(1H)-one] | 24.8 nM | >10000 nM | 4.71 nM | 9.53 nM | 7.29 nM | 17.6 nM | 4800 nM |  |  |  | 
2 | COc1ncccc1-c1nn(C)c2c1C(=O)N(c1cc(C)c3nnc(C)n3c1)C2c1ccc(Cl)cc1 (racemic) [Example 12, 6-(4-chlorophenyl)-5-(3,8-dimethyl-[1,2,4]triazolo[4,3-a]pyridin-6-yl)-3-(2-methoxypyridin-3-yl)-1-methyl-5,6-dihydropyrrolo[3,4-c]pyrazol-4(1H)-one] | 106 nM | >10000 nM | 17.5 nM | 37.8 nM | 40.5 nM | 97.35 nM | 12200 nM | 31 nM | 32 nM | 42 nM | 
3 | Cc1cc(N2C(=O)c3c(C4CC4)nn(C)c3[C@H]2c2ccc(Cl)cc2)cc2c1nnn2C [Example 9, (R)-6-(4-chlorophenyl)-3-cyclopropyl-5-(1,4-dimethyl-1H-benzo[d][1,2,3]triazol-6-yl)-1-methyl-5,6-dihydropyrrolo[3,4-c]pyrazol-4(1H)-one] | 14.3 nM | >10000 nM | 2.57 nM | 5.745 nM | 4.41 nM | 10.76 nM | 3200 nM |  |  |  | 
4 | COc1ncccc1-c1n[nH]c2c1C(=O)N(c1cc(C)c3nnc(C)n3c1)C2c1ccc(Cl)cc1 (stereo not shown) [Example 10, 6-(4-chlorophenyl)-5-(3,8-dimethyl-[1,2,4]triazolo[4,3-a]pyridin-6-yl)-3-(2-methoxypyridin-3-yl)-5,6-dihydropyrrolo[3,4-c]pyrazol-4(1H)-one] | 135 nM | >10000 nM | 34.5 nM | 64.3 nM | 60.4 nM | 136.8 nM |  | 45 nM | 30 nM | 48 nM | > 37000 nM
5 | COc1ncccc1-c1n[nH]c2c1C(=O)N(c1cc(C)c3nnc(C)n3c1)[C@@H]2c1ccc(Cl)cc1 [Example 11, (R)-6-(4-chlorophenyl)-5-(3,8-dimethyl-[1,2,4]triazolo[4,3-a]pyridin-6-yl)-3-(2-methoxypyridin-3-yl)-5,6-dihydropyrrolo[3,4-c]pyrazol-4(1H)-one] | 98.4 nM | >10000 nM | 9.55 nM | 17.4 nM | 28.2 nM | 42.8 nM | > 37000 nM | 37 nM | 42 nM | 46 nM | 
6 | COc1ncccc1-c1nn(C)c2c1C(=O)N(c1cc(C)c3nnc(C)n3c1)[C@@H]2c1ccc(Cl)cc1 [Example 13, (R)-6-(4-chlorophenyl)-5-(3,8-dimethyl-[1,2,4]triazolo[4,3-a]pyridin-6-yl)-3-(2-methoxypyridin-3-yl)-1-methyl-5,6-dihydropyrrolo[3,4-c]pyrazol-4(1H)-one] | 96.5 nM | >10000 nM | 14.2 nM | 29.8 nM | 28.4 nM | 64.65 nM | 5400 nM | 22 nM | 24 nM | 34 nM | 
7 | COc1cc(N2C(=O)c3c(C4CC4)nn(C)c3[C@H]2c2ccc(Cl)cc2)cn2c(C)nnc12 [Example 14, (R)-6-(4-chlorophenyl)-3-cyclopropyl-5-(8-methoxy-3-methyl-[1,2,4]triazolo[4,3-a]-pyridin-6-yl)-1-methyl-5,6-dihydropyrrolo[3,4-c]pyrazol-4(1H)-one] | 152 nM | >10000 nM | 20.1 nM | 39.55 nM | 51.4 nM | 118.5 nM | 27500 nM | 55 nM | 30 nM | 57 nM | 
